# Data from ChEMBL document CHEMBL1201862, “PubChem BioAssay data set” (2004).
# The source made the active and inactive calls.
# Experiments:
# [1] = molecular target: T1, Rac GTPase-activating protein 1 (Homo sapiens, UniProt Q9H0H5); experiment: blockers of MgcRacGAP-driven Rac1 GTP hydrolysis – biochemical, ADP Hunter fluorescence, primary and confirmatory, confirmation (AID 624330); type: functional
# T1 sequence (Q9H0H5 whole entry): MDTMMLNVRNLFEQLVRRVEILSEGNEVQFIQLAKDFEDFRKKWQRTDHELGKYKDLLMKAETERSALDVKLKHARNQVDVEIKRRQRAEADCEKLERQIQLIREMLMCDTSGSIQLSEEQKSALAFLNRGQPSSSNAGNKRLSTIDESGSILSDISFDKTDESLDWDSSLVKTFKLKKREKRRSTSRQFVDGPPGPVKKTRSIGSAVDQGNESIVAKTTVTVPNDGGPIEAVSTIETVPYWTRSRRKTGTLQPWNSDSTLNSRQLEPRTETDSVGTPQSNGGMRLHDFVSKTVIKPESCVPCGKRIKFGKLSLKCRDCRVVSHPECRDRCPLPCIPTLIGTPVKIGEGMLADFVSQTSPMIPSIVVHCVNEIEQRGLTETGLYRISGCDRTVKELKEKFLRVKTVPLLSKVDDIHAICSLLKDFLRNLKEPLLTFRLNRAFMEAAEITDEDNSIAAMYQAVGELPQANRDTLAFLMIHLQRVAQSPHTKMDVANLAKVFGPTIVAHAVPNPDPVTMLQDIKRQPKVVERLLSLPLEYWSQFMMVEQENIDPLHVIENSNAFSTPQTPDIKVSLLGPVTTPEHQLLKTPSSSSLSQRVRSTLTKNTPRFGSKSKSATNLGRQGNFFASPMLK
# [2] = luciferase reporter signal suppression in cells – H4 neuroglioma cells, luminescence, dose response (AID 1990); type: functional, cell-based
# [3] = alpha-synuclein stem-loop luciferase translation blockers – H4 neuroglioma cells, luminescence, confirmation (AID 1988); type: functional, cell-based
# [4] = Luminescence Cell-Based Dose Response HTS to Identify Inhibitors of 5'UTR Stem-Loop Driven Prion Protein mRNA Translation in H4 Neuroglioblastoma Cells. [Related pubchem assays: 1827 (Project Summary), 1813 (Primary HTS)]; type: functional
# [5] = Luminescence Cell-Based Dose Confirmation HTS to Identify Activators of 5'UTR Stem-Loop Driven Alpha-Synuclein mRNA Translation in H4 Neuroglioblastoma Cells. [Related pubchem assays: 1829 (Project Summary), 1814 (Primary HTS)]; type: functional
# H4 = experiment: Luminescence Cell-Based Dose Response HTS to Identify Activators of 5'UTR Stem-Loop Driven Prion Protein mRNA Translation in H4 Neuroglioblastoma Cells. [Related pubchem assays: 1829 (Project Summary), 1814 (Primary HTS)]; type: functional; conditions: Homo sapiens
# [6] = Luminescence Cell-Based Dose Response HTS to Identify Activators of Luciferase Translation or Activity in H4 […] Cells. [Related pubchem assays: 1829 (Project Summary), 1814 (Primary HTS)]; type: functional
# INS1 = experiment: INS-1E survival protection against cytokine death – cell-based, luminescence, retest, dose response (AID 449756); type: functional; conditions: Rattus norvegicus;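 further: cell death triggered by IL-1 beta plus TNF-alpha plus IFN-gamma mixture; protective hits raise ATP signal compared with cytokine alone wells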
# [7] = viability of uninfected HEp-2 cells – cell-based, HTS, cytotoxicity control for RSV inhibitor project, dose response (AID 2410); type: functional; conditions: human respiratory syncytial virus
# Cytochrome P450 2C9 = Cytochrome P450 2C9 (Homo sapiens, UniProt P11712)
# Sequence of Cytochrome P450 2C9 (P11712 whole entry): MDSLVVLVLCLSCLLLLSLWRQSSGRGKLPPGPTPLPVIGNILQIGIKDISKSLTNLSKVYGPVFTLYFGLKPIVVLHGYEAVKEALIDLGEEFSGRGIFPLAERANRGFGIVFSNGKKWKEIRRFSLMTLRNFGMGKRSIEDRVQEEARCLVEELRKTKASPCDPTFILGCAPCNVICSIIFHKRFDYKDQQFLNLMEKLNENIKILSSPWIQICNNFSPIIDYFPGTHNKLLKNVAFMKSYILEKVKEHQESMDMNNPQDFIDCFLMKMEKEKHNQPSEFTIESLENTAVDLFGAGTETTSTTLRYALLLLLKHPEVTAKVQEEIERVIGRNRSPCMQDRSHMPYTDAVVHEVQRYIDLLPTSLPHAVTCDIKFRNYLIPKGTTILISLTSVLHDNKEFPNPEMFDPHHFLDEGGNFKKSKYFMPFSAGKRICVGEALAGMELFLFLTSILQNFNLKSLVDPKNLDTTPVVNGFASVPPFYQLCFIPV
# Cytochrome P450 2C19 = Cytochrome P450 2C19 (Homo sapiens, UniProt P33261); experiment: Cytochrome panel assay with activity outcomes. Panel member name: p450-cyp2c19 Compounds with AC50 equal or less than 10 uM are considered active; type: functional; conditions: read-out: AC50
# Sequence of Cytochrome P450 2C19 (P33261 whole entry): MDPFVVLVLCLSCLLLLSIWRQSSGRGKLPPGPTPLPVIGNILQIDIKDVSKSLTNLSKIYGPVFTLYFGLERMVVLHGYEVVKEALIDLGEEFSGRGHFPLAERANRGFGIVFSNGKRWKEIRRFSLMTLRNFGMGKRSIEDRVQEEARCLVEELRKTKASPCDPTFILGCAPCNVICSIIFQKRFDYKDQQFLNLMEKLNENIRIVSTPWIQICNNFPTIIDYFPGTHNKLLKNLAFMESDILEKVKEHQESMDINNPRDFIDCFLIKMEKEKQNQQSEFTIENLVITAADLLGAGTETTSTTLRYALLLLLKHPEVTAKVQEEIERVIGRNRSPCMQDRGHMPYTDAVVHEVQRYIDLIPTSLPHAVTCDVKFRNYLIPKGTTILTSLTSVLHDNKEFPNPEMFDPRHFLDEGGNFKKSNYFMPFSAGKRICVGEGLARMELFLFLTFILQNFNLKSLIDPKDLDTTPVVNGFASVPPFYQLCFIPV
# Cytochrome P450 3A4 = Cytochrome P450 3A4 (Homo sapiens, UniProt P08684);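 further: CYP3A4 tested as one member of a cytochrome P450 panel screen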
# Sequence of Cytochrome P450 3A4 (P08684 whole entry): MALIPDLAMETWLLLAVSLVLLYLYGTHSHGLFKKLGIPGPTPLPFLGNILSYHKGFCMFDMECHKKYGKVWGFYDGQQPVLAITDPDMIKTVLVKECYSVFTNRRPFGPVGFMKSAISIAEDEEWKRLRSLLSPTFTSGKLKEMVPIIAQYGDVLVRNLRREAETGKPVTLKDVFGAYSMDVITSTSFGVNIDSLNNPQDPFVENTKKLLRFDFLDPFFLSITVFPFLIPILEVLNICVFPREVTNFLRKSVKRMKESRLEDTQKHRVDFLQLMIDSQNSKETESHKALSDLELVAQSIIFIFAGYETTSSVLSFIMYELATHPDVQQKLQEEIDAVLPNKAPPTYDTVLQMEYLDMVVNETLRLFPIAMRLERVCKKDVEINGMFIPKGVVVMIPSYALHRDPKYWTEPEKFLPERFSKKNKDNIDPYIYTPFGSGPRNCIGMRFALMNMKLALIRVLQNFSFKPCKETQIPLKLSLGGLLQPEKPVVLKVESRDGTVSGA
# Cytochrome P450 1A2 = molecular target: T2, Cytochrome P450 1A2 (Homo sapiens, UniProt P05177);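 further: PubChem cytochrome P450 panel assay, CYP1A2 panel member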
# T2 sequence (P05177 whole entry): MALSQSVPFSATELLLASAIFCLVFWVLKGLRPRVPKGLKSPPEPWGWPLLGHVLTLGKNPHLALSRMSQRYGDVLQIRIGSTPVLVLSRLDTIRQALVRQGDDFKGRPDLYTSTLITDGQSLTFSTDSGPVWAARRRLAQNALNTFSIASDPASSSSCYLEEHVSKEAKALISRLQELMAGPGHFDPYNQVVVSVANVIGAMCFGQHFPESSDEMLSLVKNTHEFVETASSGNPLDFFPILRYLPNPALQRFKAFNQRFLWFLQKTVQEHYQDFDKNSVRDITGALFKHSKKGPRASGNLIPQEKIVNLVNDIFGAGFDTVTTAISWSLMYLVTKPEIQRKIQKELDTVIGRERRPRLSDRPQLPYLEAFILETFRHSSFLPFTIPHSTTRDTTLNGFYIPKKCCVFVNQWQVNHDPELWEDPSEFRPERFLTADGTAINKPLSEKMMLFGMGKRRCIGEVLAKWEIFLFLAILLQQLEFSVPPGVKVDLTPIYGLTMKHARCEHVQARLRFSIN
# [8] = molecular target: T3, Corticotropin-releasing factor receptor 2/Corticotropin-releasing factor-binding protein (Homo sapiens, UniProt P24387+Q13324); experiment: activators of CRF receptor 2 with binding protein – uHTS hits, confirmation (AID 602473); type: functional; conditions: read-out: EC50_Mean
# T3 sequence (Q13324 whole entry): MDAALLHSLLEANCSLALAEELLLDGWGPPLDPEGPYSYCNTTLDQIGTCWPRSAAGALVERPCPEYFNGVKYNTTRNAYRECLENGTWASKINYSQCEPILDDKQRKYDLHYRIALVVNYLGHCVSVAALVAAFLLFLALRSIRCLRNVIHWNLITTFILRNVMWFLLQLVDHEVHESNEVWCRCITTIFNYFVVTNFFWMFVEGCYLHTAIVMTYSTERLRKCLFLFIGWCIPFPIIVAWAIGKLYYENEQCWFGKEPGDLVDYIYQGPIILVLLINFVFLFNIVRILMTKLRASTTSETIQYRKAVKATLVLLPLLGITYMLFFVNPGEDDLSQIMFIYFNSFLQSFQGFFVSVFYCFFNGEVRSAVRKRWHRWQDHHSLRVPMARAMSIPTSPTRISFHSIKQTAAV
# T3 sequence (P24387 whole entry): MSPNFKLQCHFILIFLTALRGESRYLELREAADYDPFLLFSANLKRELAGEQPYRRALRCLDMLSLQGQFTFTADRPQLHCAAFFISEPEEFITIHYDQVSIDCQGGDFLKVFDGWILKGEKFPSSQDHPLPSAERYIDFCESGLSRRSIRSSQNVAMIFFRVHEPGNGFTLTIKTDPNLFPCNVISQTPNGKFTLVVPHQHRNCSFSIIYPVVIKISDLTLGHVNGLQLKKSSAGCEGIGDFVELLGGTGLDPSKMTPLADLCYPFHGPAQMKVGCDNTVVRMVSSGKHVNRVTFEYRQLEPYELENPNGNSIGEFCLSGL
# Streptococcus = experiment: GAS UMAA2166 growth inhibition – luminescence, BacTiterGlo, counter-screen for streptokinase expression inhibitor project, dose response (AID 1915); type: functional, organism-based;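 further: potency for reduction of bacterial viability or growth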
# [9] = tested on: Streptococcus sp. 'group A'; experiment: Streptococcus pyogenes SK(-)GAS viability under kanamycin – luminescence, BacTiterGlo, confirmation, counter-screen for streptokinase expression inhibitor project, dose response (AID 1900); type: functional, organism-based
# Streptokinase A = molecular target: T4, Streptokinase A (Streptococcus pyogenes serotype M1, UniProt P10520); experiment: viability-normalized secreted streptokinase activity reduction – plasminogen activation absorbance, OD405, dose response (AID 1914); type: functional, Streptococcus pyogenes M1 GAS;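 further: secreted streptokinase activity via plasminogen activation per viability signal from cell pellet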
# T4 sequence (P10520 whole entry): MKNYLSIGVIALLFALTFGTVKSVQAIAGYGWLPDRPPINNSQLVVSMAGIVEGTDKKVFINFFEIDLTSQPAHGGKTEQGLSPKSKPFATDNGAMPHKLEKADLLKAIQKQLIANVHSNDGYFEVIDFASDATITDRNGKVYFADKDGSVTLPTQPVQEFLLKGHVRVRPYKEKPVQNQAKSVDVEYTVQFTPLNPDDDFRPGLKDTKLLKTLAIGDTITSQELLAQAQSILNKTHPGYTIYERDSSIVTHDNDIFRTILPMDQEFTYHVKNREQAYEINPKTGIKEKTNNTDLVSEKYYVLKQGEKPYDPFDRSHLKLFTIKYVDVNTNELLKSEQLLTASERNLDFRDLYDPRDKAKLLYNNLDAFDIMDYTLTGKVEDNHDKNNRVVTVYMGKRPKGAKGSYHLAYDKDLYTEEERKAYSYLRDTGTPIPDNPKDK
structure (smiles),measurement,setting,value
COCC(C)NCc1ccc(OC)c(Br)c1 (stereo unspecified),IC50,[1],167 µM (active)
Cc1cc(/C=C2/SC(=S)N(c3cccc(C(F)(F)F)c3)C2=O)c(C)n1-c1cccnc1,EC50,[2],> 120 µM (not active)
same,EC50,[3],> 120 µM (not active)
same,EC50,[4],> 120 µM (not active)
O=C1N=C(N2CCOCC2)S/C1=C\c1ccccc1OS(=O)(=O)c1ccccc1,EC50,[2],14.8 µM (active)
same,EC50,[3],> 120 µM (not active)
same,EC50,[4],> 120 µM (not active)
O=c1c(-c2cccc(Cl)c2)c[nH]n1-c1ccccc1,IC50,[1],59.6 µM (active)
COc1cc(/C=N/n2c(S)nnc2-c2cc(C)[nH]n2)cc(OC)c1O,IC50,[1],69.3 µM (active)
O=C(NCCc1ccccc1)c1ccccc1NC(=O)C1CCCCC1C(=O)O (stereo unspecified),EC50,[5],19.1 µM (active)
same,EC50,H4,5.14 µM (active)
same,EC50,[6],17.9 µM (active)
CCN(CC)c1ccc(/C=N/N(c2ccccc2)c2ccccc2)c(O)c1,AC50,INS1,5.2 µM (active)
CC(=O)Nc1ccc(Nc2nc(-c3cc4ccccc4oc3=O)cs2)cc1,EC50,[5],0.397 µM (active)
same,EC50,H4,1.7 µM (active)
same,EC50,[6],0.676 µM (active)
CCc1ccc(C(=O)Nn2cnc3ccccc3c2=O)cc1,EC50,[5],2.82 µM (active)
same,EC50,H4,0.887 µM (active)
same,EC50,[6],26.8 µM (active)
COc1ccc(CC(=O)Nc2cc3oc4ccccc4c3cc2OC)cc1,CC50,[7],> 50 µM (active)
O=C(NCc1nnc(S)n1-c1ccccc1)c1ccc(S(=O)(=O)N2CCOCC2)cc1,AC50,Cytochrome P450 2C9,14.1 µM (inconclusive)
same,AC50,Cytochrome P450 2C19,25.1 µM (inconclusive)
same,AC50,Cytochrome P450 3A4,31.6 µM (inconclusive)
CC1CC(c2ccccc2)=Nc2ccccc2N1 (stereo unspecified),EC50,[5],8.32 µM (active)
same,EC50,H4,43 µM (active)
same,EC50,[6],10.6 µM (active)
CCOC(=O)c1sc2nc(NC(=O)C3CC3)sc2c1C,EC50,[5],10.8 µM (active)
same,EC50,H4,28.4 µM (inconclusive)
same,EC50,[6],57.6 µM (active)
COc1ccc(F)cc1C(=O)C1CCCN(C(=O)c2ccccc2N(C)C)C1 (stereo unspecified),CC50,[7],28.1 µM (active)
C[C@H]1[C@@H](OC(=O)CCC(=O)O)O[C@@H]2OC3(C)CC[C@H]4[C@H](C)CC[C@@H]1[C@@]24OO3,EC50,[2],> 120 µM (not active)
same,EC50,[3],> 120 µM (not active)
same,EC50,[4],> 120 µM (not active)
O=C(/C=C/c1ccccc1)NC(=S)Nc1ccccc1O,EC50,[5],0.387 µM (active)
same,EC50,H4,1.9 µM (active)
same,EC50,[6],66.3 µM (active)
COc1ccc(/C=N/N2CCN(C)CC2)cc1O,IC50,[1],39.2 µM (active)
COc1ccccc1N1CCN(C(=O)CSc2ncnc3c2cnn3-c2ccc(C)c(C)c2)CC1,EC50,[5],39.4 µM (active)
same,EC50,H4,54.1 µM (active)
same,EC50,[6],15.4 µM (active)
Cc1nc(N2CCN(S(=O)(=O)c3ccc(F)cc3)CC2)c2c(-c3cccs3)csc2n1,CC50,[7],16.8 µM (active)
CC/C(=N\CCc1c(C)[nH]c2ccccc12)C1=C(O)CC(c2ccccc2)CC1=O (stereo unspecified),EC50,[2],> 30 µM (not active)
same,EC50,[3],> 120 µM (not active)
same,EC50,[4],11.7 µM (active)
Nc1c(C(=O)Nc2ccccc2Cl)nnn1-c1ccc2c(c1)OCCO2,EC50,H4,> 120 µM (not active)
COc1ccc(CN(C)CCc2ccccn2)c(OC)c1OC,IC50,[1],134 µM (active)
CCOC(=O)C(NC(=O)CC)(Nc1sc2c(c1C(=O)OC)CCN(C)C2)C(F)(F)F (stereo unspecified),AC50,Cytochrome P450 2C9,15.8 µM (inconclusive)
same,AC50,Cytochrome P450 1A2,10 µM (inconclusive)
same,AC50,Cytochrome P450 2C19,2.51 µM (inconclusive)
CCOC(=O)c1ccc(NC(=S)N2CCSC2c2ccc(Cl)cc2)cc1 (stereo unspecified),CC50,[7],16.9 µM (active)
same,EC50,[8],4.71 µM (active)
COC(=O)c1sccc1N/N=C/c1ccc(OC)c(OC)c1OC,EC50,[5],87.4 µM (active)
same,EC50,H4,40.6 µM (active)
same,EC50,[6],9.96 µM (active)
Cc1cc(C)c(OCCCCN(C)Cc2ccccc2)c(C)c1,IC50,[1],120 µM (active)
Cc1ccc([N+](=O)[O-])c(OCCN2CCCCCC2)c1,AC50,INS1,4.9 µM (active)
Nc1ccc2c(c1)Nc1ccccc1CC2,IC50,[1],27.2 µM (active)
Fc1ccc(-c2csc3ncnc(N4CCc5ccccc5C4)c23)cc1,EC50,Streptococcus,> 50 µM (not active)
same,EC50,[2],23.6 µM (active)
same,EC50,[3],> 120 µM (not active)
same,EC50,[4],> 120 µM (not active)
same,EC50,[9],9.67 µM (active)
same,EC50,Streptokinase A,6.92 µM (active)
CCCCOc1ccc(CNC(=S)N/N=C/c2ccc(OC)c(OC)c2)cc1,CC50,[7],41.2 µM (active)
CCOc1ccc(S(=O)(=O)N2CCCCC2)cc1NC(=O)CN1CCCC1c1cccs1 (stereo unspecified),AC50,INS1,4.23 µM (active)
COc1cc(CNc2ccc3[nH]c(O)nc3c2)ccc1OCc1cccc(C)c1,IC50,[1],236 µM (active)
